PubChem BioAssay (NCI)
“And” between values parts separate entries of the source, which are not always exact repeats. Equal entries are not always repeated.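 Cultured in 96-well plates, cells were exposed to test compound for 48 hours across five concentrations. The concentration for 50% growth inhibition is given as GI50. TGI: total growth inhibition.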

Key:
Experiment in all cases: DTP human tumour cell line panel, 48 h
[1] = test system: U251 CNS
[2] = test system: EKVX NSCLC
[3] = test system: PC-3 prostate
[4] = test system: HCC-2998 colon
[5] = test system: MCF7 breast
[6] = test system: HT29 colon
[7] = test system: 786-0 renal
[8] = test system: BT-549 breast
[9] = test system: OVCAR-4 ovarian
[10] = test system: NCI-H460 lung

SMILES | TGI [1] | TGI [2] | TGI [3] | TGI [4] | TGI [5] | TGI [6] | TGI [7] | TGI [8] | TGI [9] | TGI [10] | GI50 [1] [µM] | GI50 [3] [µM] | GI50 [4] [µM] | GI50 [5] [µM] | GI50 [6] [µM] | GI50 [7] [µM] | GI50 [8] [µM] | GI50 [9] [µM] | GI50 [10] [µM] | GI50 [2] [µM]
CC(=O)OC1CCC2(C)C(=CCC3C2CCC2(C)C(C(C)C(=O)O)CCC32)C1 (stereo not drawn) | > 100 µM | > 100 µM | > 100 µM | > 100 µM | > 100 µM | > 100 µM | > 100 µM | > 100 µM | > 100 µM | > 100 µM | – | – | – | – | – | – | – | – | – | –
COc1ccc(-c2nn(-c3cccc(NC(=O)Nc4cc(C(F)(F)F)cc(C(F)(F)F)c4)c3)cc2-c2ccncc2)cc1Cl | 1.73 µM | – | 2.92 µM | 9.18 µM | 5.98 µM | 5.75 µM | 2.74 µM | 4.59 µM | 4.86 µM | 4.9 µM | 0.731 | 0.448 | 2.02 | 1.01 | 1.29 | 0.976 | 1.35 | 1.1 | 0.872 | –
O=c1[nH]c(SCc2c(Cl)c(Cl)c(Cl)c(Cl)c2Cl)nc(=S)[nH]1 | > 100 µM | > 100 µM | > 100 µM | – | > 100 µM | > 63 µM | > 100 µM | > 100 µM | 54.8 µM | > 100 µM | – | – | – | – | – | – | – | – | – | –
N#Cc1c(-c2ccccc2)cc(-c2ccccc2)n(CCCCC(=O)NO)c1=O | 11.1 µM | 11.7 µM | 15.9 µM | 10.8 µM | 11 µM | 13.4 µM | 9.13 µM | 16.4 µM | 16.5 µM | 15.2 µM | 2.79 | 2.72 | 2.65 | 1.79 | 3.51 | 2.83 | 3.65 | 2.74 | 3.71 | 2.82
COc1cc([C@@H]2c3cc4c(cc3[C@@H](O[C@@H]3O[C@@H]5CO[C@@H](c6cccs6)O[C@H]5[C@H](O)[C@H]3O)[C@H]3COC(=O)[C@H]23)OCO4)cc(OC)c1O | 6.96 µM | > 100 µM | > 69.7 µM | 2.02 µM | > 100 µM | 3.66 µM | 1.34 µM | 4.37 µM | 37.4 µM | 2.09 µM | 0.18 | 1.69 | 0.385 | 0.0491 | 0.614 | 0.193 | 0.344 | 2.83 | 0.023 | 4.1
OC(COc1cccc2ccccc12)CN1CCN(c2ccccc2)CC1 (stereo not drawn) | 32.1 µM | 32.3 µM | 29 µM | 30.7 µM | 31.9 µM | 30 µM | 32.2 µM | 32.2 µM | 27.6 µM | 31 µM | 17.3 | 12.5 | 16.5 | 17.3 | 15 | 17.4 | 17.9 | 14.1 | 15.9 | 15.4
COc1ccc(/C=C\c2cc(OC)c(OC)c(OC)c2)cc1OC(=O)c1cccc(Cn2cc(CCOC(=O)c3cccc(Cn4nnc5c4C(=O)c4ccccc4C5=O)c3)nn2)c1 | > 100 µM | > 100 µM | > 100 µM | > 47.8 µM | > 70.5 µM | – | 17.5 µM | 1.35 µM | > 100 µM | 12.6 µM | < 0.01 | < 0.01 | 0.0362 | 0.0216 | 0.321 | 0.101 | < 0.01 | 0.0403 | < 0.01 | 0.062
CC(=O)OC[C@]12CC[C@@H]([C@@H](C)C(N)=O)[C@@H]1[C@H]1CC[C@@H]3[C@@]4(C)CC[C@H](OC(C)=O)C(C)(C)[C@@H]4CC[C@@]3(C)[C@]1(C)CC2 | 20.4 µM | 22.5 µM | 11.6 µM | 26.1 µM | 12.4 µM | 15.4 µM | 26.3 µM | 22.6 µM | 18.5 µM | 30.9 µM | 5.1 | 2.67 | 10.4 | 3.27 | 3.73 | 10.9 | 8.17 | 4.72 | 13.4 | 9.27
C#CCNC(=O)CC[C@]1(C)[C@H]2CC[C@@H]3[C@@H]([C@@](C)(O)CCC=C(C)C)CC[C@@]3(C)[C@]2(C)CC[C@H]1C(=C)C | 49.5 µM | > 100 µM | 70 µM | > 100 µM | > 100 µM | 42.9 µM | 30 µM | > 100 µM | > 100 µM | > 100 µM | 20.1 | 17.4 | 45.8 | 24.7 | 18.8 | 12.2 | 29 | 43.6 | 31.2 | 47.9
COc1c(CNC(=O)CCl)cc2[nH]c(C)cc2c1CNC(=O)CCl | 4.7 µM | 27.5 µM | 33.9 µM | 30.4 µM | 20.9 µM | 25.2 µM | 15.4 µM | 35.2 µM | 22.3 µM | 15.6 µM | 1.94 | 12.2 | 13.2 | 2.81 | 5.97 | 3.8 | 17 | 4.55 | 3.73 | 11
CN(C)CCN=Cc1c2ccccc2c(=O)n2c1oc1ccccc12 | 21 µM | 21.4 µM | 29.9 µM | 24.6 µM | – | 19.4 µM | 25.3 µM | 21.1 µM | 51.6 µM | 11.7 µM | 7.4 | 11.5 | 12.2 | – | 4.56 | 11.6 | 7.61 | 18.4 | 2.94 | 6.76
CC1=C(/C=C/C(C)=C/C=C/C(C)=C/C(=O)Nc2ccc(O)cc2)C(C)(C)CCC1 | 7.79 µM and 33.3 µM | 20.7 µM and 25.2 µM | 4.61 µM and 12.7 µM | 5.97 µM and 18 µM | 9.59 µM and 12.9 µM | 7.6 µM and 14.9 µM | 4.36 µM and 10.9 µM | 7.44 µM and 18.6 µM | 9.53 µM and 14.8 µM | 9.48 µM and 25.2 µM | 1.94 | 1.37 | 2.12 | 1.4 | – | 1.72 | 0.826 | 2.6 | 2.58 | 5.14
COC(=O)[C@H](CC(C)C)NC(=O)NC(=O)NC(=O)CI | 29.3 µM | 29.8 µM | 25.7 µM | 24.2 µM | 4.33 µM | 3.59 µM | 11.5 µM | 17.7 µM | 4.26 µM | 41.5 µM | 15.8 | 11.8 | 11.4 | 1.8 | 1.93 | 3.02 | 5.32 | 1.88 | 18.7 | 16.1
O=C1c2ccccc2-c2c1c1ccccc1c(=O)n2CCCN1CCN(CCCn2c3c(c4ccccc4c2=O)C(=O)c2ccccc2-3)CC1 | 18.7 µM | > 100 µM | > 100 µM | > 100 µM | > 100 µM | > 100 µM | > 32 µM | > 100 µM | > 100 µM | > 100 µM | 5.44 | > 100 | > 100 | > 100 | > 100 | 2.22 | > 75.2 | > 100 | > 68 | > 100
CCOC(=O)C1=C(C)NC(=O)NC1c1coc2cc(C)cc(C)c2c1=O (stereo not drawn) | > 100 µM | > 100 µM | > 100 µM | – | > 100 µM | > 100 µM | > 100 µM | > 100 µM | > 100 µM | > 100 µM | – | – | – | – | – | – | – | – | – | –
CCCCN(CCCC)CCCN=c1nc2c(c(N)n1-c1ccccc1)c(=S)n(-c1ccccc1)c(=S)n2-c1ccccc1 | 1.27 µM | 2.69 µM | 1.94 µM | 2.52 µM | 1.51 µM | 0.784 µM | 1.08 µM | 3.38 µM | 2.46 µM | 1.71 µM | 0.34 | 0.59 | 0.825 | 0.361 | 0.276 | 0.501 | 1.67 | 0.994 | 0.483 | 0.84
Clc1ccc(-c2nn3ncccc3c2-c2ccnc(Nc3ccccc3)n2)cc1 | > 25 µM | > 25 µM | > 25 µM | > 25 µM | > 25 µM | > 25 µM | > 25 µM | > 25 µM | > 25 µM | > 25 µM | 14.9 | 7.3 | 10.9 | 7.17 | 6.51 | 8.2 | 10.7 | 9.6 | 6.34 | 2.94
COc1cc(C2CC(c3cc(C)ccc3C)=NN2c2ccc(S(=O)(=O)NC(=O)NCc3ccccc3)cc2)cc(OC)c1OC (stereo not drawn) | 17.3 µM | – | 12.3 µM | 6.47 µM | 9.56 µM | 47.7 µM | 23.5 µM | 12.6 µM | 39.6 µM | 6.48 µM | 3.31 | 2.54 | 2.63 | 2.58 | 3.87 | 3.79 | 3.08 | 3.28 | 2.54 | –
COC(=O)[C@@]1(C)CC[C@]2(C)CC[C@]3(C)C4=CC=C5C(=CC(=O)C(O)=C5C)[C@]4(C)CC[C@@]3(C)[C@@H]2C1 | 0.321 µM | 1.11 µM | 0.573 µM | 0.474 µM | – | 0.445 µM | 0.315 µM | 0.889 µM | 0.424 µM | 0.796 µM | 0.173 | 0.24 | 0.21 | – | 0.207 | 0.172 | 0.36 | 0.153 | 0.274 | 0.295
CCC1CC(=O)N(SCC(N)C(=O)O)C1=O (stereo not drawn) | > 100 µM | > 100 µM | > 100 µM | – | > 100 µM | > 100 µM | > 100 µM | > 100 µM | > 100 µM | > 100 µM | – | – | – | – | – | – | – | – | – | –
COc1ccc2c(=O)c3cc([N+](=O)[O-])ccc3n(C)c2c1 | > 100 µM | > 100 µM | > 100 µM | > 100 µM | > 100 µM | – | > 100 µM | > 100 µM | > 100 µM | > 100 µM | – | – | – | – | – | – | – | – | – | –
COc1ccc(/C=C/c2cc(N3CCOCC3)c3cc(F)c(F)cc3n2)cc1OC | 10.5 µM | – | 14.4 µM | 4.21 µM | 9.48 µM | – | 3.8 µM | 5.46 µM | 2.04 µM | 3.72 µM | 0.728 | 0.846 | 0.876 | 0.389 | – | 0.6 | 0.777 | 0.253 | 0.526 | –
Cc1nc(/N=C(\N)NC(=O)Nc2ccccc2Cl)sc1C | 6.13 µM | > 100 µM | > 100 µM | > 100 µM | > 100 µM | 5.32 µM | 3.25 µM | 10.3 µM | – | 1.62 µM | 0.439 | 0.659 | 1.25 | 0.359 | 0.333 | 0.639 | 0.637 | – | 0.367 | 0.626
COc1cccc(C2NC(=S)NC(C)=C2C(=O)Nc2ccc(F)c(Cl)c2)c1 (stereo not drawn) | > 50 µM | > 50 µM | > 50 µM | – | > 50 µM | – | > 50 µM | 46.1 µM | – | > 50 µM | 23.9 | 23.2 | – | 20.2 | – | > 50 | 15.2 | – | 43.2 | 22.8
CC(=O)OCC1OC(OC2=C(CC=C(Cl)Cl)C(=O)c3ccccc3C2=O)C(OC(C)=O)C(OC(C)=O)C1OC(C)=O (stereo not drawn) | 13.3 µM | – | 11.5 µM | 20.9 µM | – | 60.5 µM | 31.8 µM | 20.4 µM | – | 34.4 µM | 3.54 | 2.66 | 6.96 | – | 16 | 16.6 | 7.03 | – | 12.5 | –
O=C(NNC(=O)c1ccncc1)c1ccncc1 | > 100 µM | > 100 µM | > 100 µM | – | > 100 µM | > 100 µM | > 100 µM | > 100 µM | > 100 µM | > 100 µM | – | – | – | – | – | – | – | – | – | –
C/C(=C\CCc1ccoc1)CC/C=C(\C)CCCN1CCC(CO)CC1 | 9.24 µM | – | – | 4.03 µM | 11.6 µM | 7.48 µM | 5.37 µM | 12.1 µM | 14.8 µM | 4.37 µM | 2.41 | – | 2.1 | 3.24 | 2.26 | 2.35 | 2.77 | 3.28 | 2.08 | –
